Literature values, collected in patent US20240285565A1, “USE OF (S)-3-AMINO-4-(DIFLUOROMETHYLENYL)CYCLOPENT-1-ENE-1-CARBOXYLIC ACID IN THE TREATMENT OF DIABETES AND PRE-DIABETES” (Ovid Therapeutics Inc., priority 2023, published 2024).

Tests used:
[1] = molecular target: aspartate aminotransferase (Asp-AT)
[2] = molecular target: alanine aminotransferase (Ala-AT)
OAT = molecular target: T1, OAT (Homo sapiens, UniProt P04181)
T1 sequence (P04181 26-439): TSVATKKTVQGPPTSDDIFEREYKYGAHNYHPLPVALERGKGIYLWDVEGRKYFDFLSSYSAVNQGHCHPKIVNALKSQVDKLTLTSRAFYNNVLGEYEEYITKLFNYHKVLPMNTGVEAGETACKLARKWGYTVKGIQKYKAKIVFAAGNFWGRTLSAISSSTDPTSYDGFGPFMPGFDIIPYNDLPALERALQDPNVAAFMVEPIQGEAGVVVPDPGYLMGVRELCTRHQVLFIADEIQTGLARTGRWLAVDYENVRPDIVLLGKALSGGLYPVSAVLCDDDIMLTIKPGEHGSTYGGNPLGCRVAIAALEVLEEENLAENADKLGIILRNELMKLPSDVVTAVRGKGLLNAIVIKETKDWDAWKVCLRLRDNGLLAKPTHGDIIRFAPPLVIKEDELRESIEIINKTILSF

For `N[C@H]1C=C(C(=O)O)CC1=C(F)F` [(S)-3-amino-4-(difluoromethylenyl)cyclopent-1-ene-1-carboxylic acid], the IC50 ([1]; reversible inhibition) is listed as over 4000 µM, the IC50 ([2]; reversible inhibition) is listed as over 4000 µM and the “Kinact/K1 (OAT)” value (OAT) is listed as 127 M⁻¹ s⁻¹. For the same compound, the “times more efficient an inactivator of OAT than CPP-115” value (OAT; ratio of Kinact/K1 relative to CPP-115) was 9.0 times.

In the case of `N[C@H]1C[C@@H](C(=O)O)CC1=C(F)F` [CPP-115, (1S,3S)-3-amino+difluoromethylenyl-1-cyclopentanoic acid, reference compound], the “inactivation or inhibition of Asp-AT” value ([1]; result in words) is given as “not to inactivate or inhibit”, the “inactivation or inhibition of Ala-AT” value ([2]; result in words) is given as “not to inactivate or inhibit” and the Ki (OAT; read-out: K1 (OAT)) is given as 116 µM.
